Assays:
Assay in all cases: MIC, two-fold agar dilution
Type in all cases: cell-based
Settings in all cases: Muller-Hinton agar, 37° C., 20 hours
[1] = test system: Salmonella typhimurium 14028A
[2] = test system: Pseudomonas aeruginosa 10145
Staphylococcus aureus 77 = test system: Staphylococcus aureus 77
[3] = test system: Enterobacter cloacae IND + VE 1194E
[4] = test system: Klebsiella aerogenes K1 + 1082E
[5] = test system: Serratia marcescens 1826E
E. coli 3190Y = test system: E. coli 3190Y
E. coli TEM1 1193E = test system: E. coli TEM1 1193E
[6] = test system: Klebsiella aerogenes SHV-1 1976E
E. coli 10536 = test system: E. coli 10536
[7] = test system: Streptococcus laecalis 29212A
E. coli TEM5 3739E = test system: E. coli TEM5 3739E
E. coli 851E = test system: E. coli 851E
Enterobacter cloacae P99 = test system: Enterobacter cloacae P99
[8] = test system: Staphylococcus aureus 241
Proteus vularis 6059A = test system: Proteus vularis 6059A
[9] = test system: Acinetobacter calcoaceticus 15473A
[10] = test system: Pseudomonas aeruginosa 6065
E. coli TEM7 3457E = test system: E. coli TEM7 3457E
[11] = test system: Staphylococcus aureus giorgio
[12] = test system: Citrobacter diversus 2046E
E. coli TEM9 2639E = test system: E. coli TEM9 2639E
E. coli TEM3 3455E = test system: E. coli TEM3 3455E
[13] = test system: Pseudomonas aeruginosa 1912E
[14] = test system: Staphylococcus aureus 6538P
[15] = test system: Staphylococcus epidermidis 887E

Row | Compound | minimal inhibitory concentration (MIC) [2] | minimal inhibitory concentration (MIC) (Staphylococcus aureus 77) | minimal inhibitory concentration (MIC) [3] | minimal inhibitory concentration (MIC) [4] | minimal inhibitory concentration (MIC) [5] | minimal inhibitory concentration (MIC) (E. coli 3190Y) | minimal inhibitory concentration (MIC) (E. coli TEM1 1193E) | minimal inhibitory concentration (MIC) [6] | minimal inhibitory concentration (MIC) (E. coli 10536) | minimal inhibitory concentration (MIC) [7] | minimal inhibitory concentration (MIC) (E. coli TEM5 3739E) | minimal inhibitory concentration (MIC) (E. coli 851E) | minimal inhibitory concentration (MIC) (Enterobacter cloacae P99) | minimal inhibitory concentration (MIC) [8] | minimal inhibitory concentration (MIC) (Proteus vularis 6059A) | minimal inhibitory concentration (MIC) [9] | minimal inhibitory concentration (MIC) [10] | minimal inhibitory concentration (MIC) (E. coli TEM7 3457E) | minimal inhibitory concentration (MIC) [11] | minimal inhibitory concentration (MIC) [12] | further results
1 | Nc1cc(N)nc(SCC2=C(C(=O)O)N3C(=O)[C@@H](NC(=O)/C(=N\O[C@@H](C(=O)O)c4ccc(O)c(O)c4)c4csc(N)n4)[C@H]3SC2)n1 [Compound I-1R, 7-[(Z)-2-(aminothiazol-4-yl)-2-(α-carboxy-3,4-dihydroxybenzyloxyimino)acetamido]-3-(4,6-diamino-pyrimidine-2-yl) thiomethyl-3-cephem-4-carboxylate] | 2 | 32 | 32 | 0.5 | 2 | 0.13 | 0.25 | 0.5 | 0.063 | 16 | 0.25 | 0.13 | 32 | 128 | 0.5 | 1 | 8 | 0.063 | 1 | 1 | minimal inhibitory concentration (MIC) [1]: 0.13; minimal inhibitory concentration (MIC) (E. coli TEM9 2639E): 0.5; minimal inhibitory concentration (MIC) (E. coli TEM3 3455E): 0.25; minimal inhibitory concentration (MIC) [13]: 1; minimal inhibitory concentration (MIC) [14]: 2
2 | Cc1c(N)nc(SCC2=C(C(=O)O)N3C(=O)[C@@H](NC(=O)/C(=N\O[C@@H](C(=O)O)c4ccc(O)c(O)c4)c4csc(N)n4)[C@H]3SC2)nc1N [Compound I-2R, 7-[(Z)-2-(aminothiazol-4-yl)-2-(α-carboxyl-3,4-dihydroxybenzyloxyimino)acetamido]-3-(4,6-diamino-5-methylpyrimidine-2-yl)thiomethyl-3-cephem-4-carboxylate] | 2 | 32 | 32 | 1 | 2 | 0.13 | 0.5 | 0.5 | 0.063 | 32 | 0.25 | 0.13 | 32 | 128 | 0.5 | 1 | 8 | 0.016 | 1 | 2 | minimal inhibitory concentration (MIC) [1]: 0.25; minimal inhibitory concentration (MIC) (E. coli TEM9 2639E): 0.5; minimal inhibitory concentration (MIC) (E. coli TEM3 3455E): 0.25; minimal inhibitory concentration (MIC) [14]: 2
3 | Nc1ccnc(SCC2=C(C(=O)O)N3C(=O)[C@@H](NC(=O)/C(=N\O[C@@H](C(=O)O)c4ccc(O)c(O)c4)c4csc(N)n4)[C@H]3SC2)n1 [Compound I-3R, 7-[(Z)-2-(aminothiazol-4-yl)-2-(α-carboxyl-3,4-dihydroxybenzyloxyimino)acetamido]-3-(4-amino-pyrimidine-2-yl) thiomethyl-3-cephem-4-carboxylate] | 2 | 16 | 32 | 0.5 | 2 | 0.13 | 0.5 | 1 | 0.031 | 32 | 0.25 | 0.13 | 16 | 128 | 0.5 | 1 | 8 | 0.016 | 2 | 2 | minimal inhibitory concentration (MIC) (E. coli TEM9 2639E): 0.5; minimal inhibitory concentration (MIC) (E. coli TEM3 3455E): 0.25; minimal inhibitory concentration (MIC) [13]: 1; minimal inhibitory concentration (MIC) [14]: 2
4 | Nc1nc(/C(=N/O[C@@H](C(=O)O)c2ccc(O)c(O)c2)C(=O)N[C@@H]2C(=O)N3C(C(=O)O)=C(CSc4nc(N)c5c(n4)CCC5)CS[C@H]23)cs1 [Compound I-4R, 7-[(Z)-2-(aminothiazol-4-yl)-2-(α-carboxyl-3,4-dihydroxybenzyioxyimino)acetamido]-3-(4-amino-5,6-cyclopentapyrimidine-2-yl)thiomethyl-3-cephem-4-carboxylate] | 2 | 32 | 32 | 1 | 2 | 0.25 | 0.5 | 0.5 | 0.063 | 16 | 0.25 | 0.13 | 32 | 128 | 0.5 | 1 | 8 | 0.063 | 2 | 2 | minimal inhibitory concentration (MIC) [1]: 0.13; minimal inhibitory concentration (MIC) (E. coli TEM9 2639E): 0.5; minimal inhibitory concentration (MIC) (E. coli TEM3 3455E): 0.25; minimal inhibitory concentration (MIC) [14]: 2; minimal inhibitory concentration (MIC) [15]: 32
5 | Nc1nc(/C(=N/O[C@@H](C(=O)O)c2ccc(O)c(O)c2)C(=O)N[C@@H]2C(=O)N3C(C(=O)O)=C(CSc4nc(N)c(N)c(N)n4)CS[C@H]23)cs1 [Compound I-5R, 7-[(Z)-2-(aminothiazol-4-yl)-2-(α-carboxy-3,4-dihydroxybenzyloxyimino)acetamido]-3-(4,5,6-triaminopyrimidine-2-yl)thiomethyl-3-cephem-4-carboxylate] | 2 | 32 | 32 | 0.5 | 2 | 0.063 | 0.25 | 0.25 | 0.063 | 16 | 0.25 | 0.13 | 32 | 128 | 0.5 | 1 | 8 | 0.063 | 1 | 1 | minimal inhibitory concentration (MIC) [1]: 0.13; minimal inhibitory concentration (MIC) (E. coli TEM9 2639E): 0.5; minimal inhibitory concentration (MIC) (E. coli TEM3 3455E): 0.25; minimal inhibitory concentration (MIC) [13]: 1; minimal inhibitory concentration (MIC) [14]: 2

Source: patent US5571804A, “Cephalosporin antibiotics” (priority 1993, dated 1996)
